{
  "source": "patent US20100267561A1",
  "about": "“HERBICIDAL PYRIDAZINONE DERIVATIVES” (priority 2007, published 2010)",
  "format_in_all_cases": "in vivo",
  "key": {"[1]": {"tested_on": "barnyardgrass (Echinochloa crus-galli)", "test": "Test A pre-/postemergence plant response", "method_in_brief": "(§1)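 Ratings run 0–100 (100 = complete control), assigned visually against untreated controls roughly 10 days after treatment in a greenhouse. Compounds, formulated in non-phytotoxic solvent containing surfactant, were applied as a soil-directed preemergence spray and concurrently postemergence to one- to two-leaf plants 2–10 cm tall.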"}, "[2]": {"tested_on": "blackgrass (Alopecurus myosuroides)", "test": "Test A pre-/postemergence plant response", "method_in_brief": "as §1"}, "[3]": {"tested_on": "canarygrass (Phalaris minor)", "test": "Test A pre-/postemergence plant response", "method_in_brief": "as §1"}, "corn (Zea mays)": {"tested_on": "corn (Zea mays)", "test": "Test A pre-/postemergence plant response", "method_in_brief": "as §1"}, "[4]": {"tested_on": "giant foxtail (Setaria faberi)", "test": "Test A pre-/postemergence plant response", "method_in_brief": "as §1"}, "[5]": {"tested_on": "large crabgrass (Digitaria sanguinalis)", "test": "Test A pre-/postemergence plant response", "method_in_brief": "as §1"}, "[6]": {"tested_on": "pigweed (Amaranthus retroflexus)", "test": "Test A pre-/postemergence plant response", "method_in_brief": "as §1"}, "[7]": {"tested_on": "wheat (Triticum aestivum)", "test": "Test A pre-/postemergence plant response", "method_in_brief": "as §1"}, "[8]": {"tested_on": "wild oat (AVEFA, Avena fatua)", "test": "Test G mixtures of Compound 26 with crop safeners, postemergence plant response", "details": "applied alone, 125 g a.i./ha", "protocol": "(§2) This test evaluated the effect of mixtures of Compound 26 with commercial crop safeners cloquintocet-mexyl, mefenpyr-diethyl, and fenchlorazole-ethyl on three plant species. Seeds of winter wheat (TRZAW, Triticum aestivum), winter barley (HORVX, Hordeum vulgare), and wild oat (AVEFA, Avena fatua) (a weed) were planted into a silt loam soil. Plants from these seeds were treated postemergence using test chemicals formulated in a non-phytotoxic solvent mixture that included a surfactant. Plants ranged in height from 6 to 10 cm (2- to 3-leaf stage).\n(§3) Plants were grown in a greenhouse using supplemental lighting to maintain a photoperiod of about 14 hours; daytime and nighttime temperatures were about 22-26° C. and 15-19° C., respectively. Balanced fertilizer was applied through the watering system. Treatments consisted of Compound 26 and the above mentioned safeners alone and in combination using a spray volume of 281 L/ha. Each treatment was replicated four times. Treated plants and controls were maintained in a greenhouse for 15 days, after which time all treated plants were compared to controls and visually evaluated. Plant response ratings were calculated as the means of the four replicates based on a scale of 0 to 100 where 0 is no effect and 100 is complete control and are summarized in Tables G1 to G3. Because the safeners alone caused no injury at the rates tested, the expected effect of a mixture of Compound 26 with a safener is the same as the observed effect of Compound 26 alone.\n(§4) The highest application rate of each safener was tested alone to confirm the absence of herbicidal activity on the test species when appled postemergence at 125 g ai/ha. Therefore, an extrapolated result of zero for each safener alone at 16, 31, or 62 g ai/ha was used to calculate the mixture response of Compound 26 and these safener application rates."}, "[9]": {"tested_on": "winter barley (HORVX, Hordeum vulgare)", "test": "Test G mixtures of Compound 26 with crop safeners, postemergence plant response", "details": "applied alone, 125 g a.i./ha", "protocol": "as §2, §3, §4"}, "[10]": {"tested_on": "winter wheat (TRZAW, Triticum aestivum)", "test": "Test G mixtures of Compound 26 with crop safeners, postemergence plant response", "details": "applied alone, 125 g a.i./ha", "protocol": "as §2, §3, §4"}, "[11]": {"details": "Postemergence, 31 g ai/ha, 0 to 100 scale, 0 no effect, 100 complete control"}, "[12]": {"details": "Postemergence, 125 g ai/ha, 0 to 100 scale, 0 no effect, 100 complete control"}, "[13]": {"details": "Preemergence, 31 g ai/ha, 0 to 100 scale, 0 is no effect, 100 is complete control"}, "[14]": {"details": "Preemergence, 125 g ai/ha, 0 to 100 scale (0 no effect, 100 complete control)"}},
  "data": [
    {"smiles": "CC(C)Cc1cc(-c2ccc(Cl)cc2)nn1-c1c(O)cnn(C)c1=O", "note": "[Compound 92]", "values": [
      {"measurement": "Plant response rating, Barnyardgrass", "setting": "[1]; [11]", "result": 0},
      {"measurement": "Plant response rating, Barnyardgrass", "setting": "[1]; [12]", "result": 80},
      {"measurement": "Plant response rating, Barnyardgrass", "setting": "[1]; [13]", "result": 0},
      {"measurement": "Plant response rating, Barnyardgrass", "setting": "[1]; [14]", "result": 20},
      {"measurement": "Plant response rating, Blackgrass", "setting": "[2]; [11]", "result": 0},
      {"measurement": "Plant response rating, Blackgrass", "setting": "[2]; [12]", "result": 50},
      {"measurement": "Plant response rating, Blackgrass", "setting": "[2]; [13]", "result": 0},
      {"measurement": "Plant response rating, Blackgrass", "setting": "[2]; [14]", "result": 0},
      {"measurement": "Plant response rating, Canarygrass", "setting": "[3]; [11]", "result": 0},
      {"measurement": "Plant response rating, Canarygrass", "setting": "[3]; [12]", "result": 30},
      {"measurement": "Plant response rating, Canarygrass", "setting": "[3]; [13]", "result": 0},
      {"measurement": "Plant response rating, Canarygrass", "setting": "[3]; [14]", "result": 10},
      {"measurement": "Plant response rating, Corn", "setting": "corn (Zea mays); [11]", "result": 0},
      {"measurement": "Plant response rating, Corn", "setting": "corn (Zea mays); [12]", "result": 20},
      {"measurement": "Plant response rating, Corn", "setting": "corn (Zea mays); [13]", "result": 0},
      {"measurement": "Plant response rating, Corn", "setting": "corn (Zea mays); [14]", "result": 20},
      {"measurement": "Plant response rating, Foxtail, Giant", "setting": "[4]; [11]", "result": 10},
      {"measurement": "Plant response rating, Foxtail, Giant", "setting": "[4]; [12]", "result": 60},
      {"measurement": "Plant response rating, Foxtail, Giant", "setting": "[4]; [13]", "result": 0},
      {"measurement": "Plant response rating, Foxtail, Giant", "setting": "[4]; [14]", "result": 50},
      {"measurement": "Plant response rating, Crabgrass, Large", "setting": "[5]; [11]", "result": 0},
      {"measurement": "Plant response rating, Crabgrass, Large", "setting": "[5]; [12]", "result": 10},
      {"measurement": "Plant response rating, Crabgrass, Large", "setting": "[5]; [13]", "result": 0},
      {"measurement": "Plant response rating, Crabgrass, Large", "setting": "[5]; [14]", "result": 20},
      {"measurement": "Plant response rating, Pigweed", "setting": "[6]; [11]", "result": 0},
      {"measurement": "Plant response rating, Pigweed", "setting": "[6]; [12]", "result": 0},
      {"measurement": "Plant response rating, Pigweed", "setting": "[6]; [13]", "result": 0},
      {"measurement": "Plant response rating, Pigweed", "setting": "[6]; [14]", "result": 0},
      {"measurement": "Plant response rating, Wheat", "setting": "[7]; [11]", "result": 0},
      {"measurement": "Plant response rating, Wheat", "setting": "[7]; [12]", "result": 30},
      {"measurement": "Plant response rating, Wheat", "setting": "[7]; [13]", "result": 0},
      {"measurement": "Plant response rating, Wheat", "setting": "[7]; [14]", "result": 0}
    ]},
    {"smiles": "CCOC(=O)c1nc(C(Cl)(Cl)Cl)n(-c2ccc(Cl)cc2Cl)n1", "note": "[fenchlorazole-ethyl]", "values": [
      {"measurement": "AVEFA Obsd. (observed effect) plant response rating, scale 0 to 100", "setting": "[8]", "result": 0},
      {"measurement": "HORVX Obsd. (observed effect) plant response rating, scale 0 to 100", "setting": "[9]", "result": 0},
      {"measurement": "TRZAW Obsd. (observed effect) plant response rating, scale 0 to 100", "setting": "[10]", "result": 0}
    ]},
    {"smiles": "CCOC(=O)C1=NN(c2ccc(Cl)cc2Cl)C(C)(C(=O)OCC)C1", "note": "(centres unmarked) [mefenpyr-diethyl]", "values": [
      {"measurement": "AVEFA Obsd. (observed effect) plant response rating, scale 0 to 100", "setting": "[8]", "result": 0},
      {"measurement": "HORVX Obsd. (observed effect) plant response rating, scale 0 to 100", "setting": "[9]", "result": 0},
      {"measurement": "TRZAW Obsd. (observed effect) plant response rating, scale 0 to 100", "setting": "[10]", "result": 0}
    ]}
  ]
}
